Data on 16 compounds can be found in patent US20190151312A1, “HEPARAN SULFATE BIOSYNTHESIS INHIBITORS FOR THE TREATMENT OF DISEASES” (BioMarin Pharmaceutical Inc., priority 2014, published 2019).

One test concerns GM01896 cells (MPS II dermal fibroblasts). The test is described as follows: Assay 1: MPS cellular assay, MPS II (heparan sulfate disaccharide biomarkers by LC-MS). The format is cell-based, human. The following applies: Assay 1 for MPS II, heparan sulfate disaccharide biomarkers (I2a4, I2a6, I2S0 and/or I2S6), read-out: IC50 Range. An outline of the steps: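 Heparan sulfate disaccharide biomarkers quantified by LC-MS after heparinase I/II/III digestion and isotopic aniline labelling, using GM01896 MPS II fibroblasts exposed to compound (at or below 30 μM, 4-21 days). Values given as IC50 by curve fitting; cell viability checked with alamar blue or ATP.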
For the compound “[6-(1-methyl(1H-indazol-6-yl))-2-morpholin-4-ylpyrimidin-4-yl][4-(3-methylpyrazolyl)phenyl]amine”, the IC50 is below 500 nM.

Still in this test, the particulars now being: Homo sapiens, Fibroblast, Assay 1 for MPS II, heparan sulfate disaccharide biomarkers (I2a4, I2a6, I2S0 and/or I2S6), read-out: IC50 Range.
Consider `Cc1nn(CCCN2CCOCC2)c2cc(-c3cc(Nc4ccc(Cl)cc4)nc(N4CCOCC4)n3)ccc12` [(4-chlorophenyl){6-[3-methyl-1-(3-morpholin-4-ylpropyl)(1H-indazol-6-yl)]-2-morpholin-4-ylpyrimidin-4-yl}amine], for which the IC50 was 1000 to 5000 nM.

Take `Clc1ccc(Nc2cc(-c3ccc4c(c3)ncn4CC3CC3)nc(N3CCOCC3)n2)cc1` [(4-chlorophenyl){6-[1-(cyclopropylmethyl)benzimidazol-5-yl]-2-morpholin-4-ylpyrimidin-4-yl}amine]: the half-maximal inhibitory concentration (IC50) lay in the range of 500 to 1000 nM.

Turning to `Clc1ccc(Nc2cc(-c3ccc4nc[nH]c4c3)nc(N3CCOCC3)n2)cc1` [(6-benzimidazol-6-yl-2-morpholin-4-ylpyrimidin-4-yl)(4-chlorophenyl)amine], the IC50 was 500 to 1000 nM.

Regarding `COc1ccc(Nc2cc(-c3ccc4ncn(C)c4c3)nc(N3CCOCC3)n2)cc1` [(4-methoxyphenyl)[6-(1-methylbenzimidazol-6-yl)-2-morpholin-4-ylpyrimidin-4-yl]amine], the concentration for half-maximal inhibition (IC50) lay within 1000 to 5000 nM.

As for `Cc1nc2ccc(-c3cc(Nc4ccc(Cl)cc4)nc(N4CCOCC4)n3)cc2n1C` [[6-(1,2-dimethylbenzimidazol-6-yl)-2-morpholin-4-ylpyrimidin-4-yl](4-chlorophenyl)amine], the IC50 fell in the range of 500 to 1000 nM.

As for `Cn1c(CCN2CCCC2)nc2ccc(-c3cc(Nc4ccc(Cl)cc4)nc(N4CCOCC4)n3)cc21` [(4-chlorophenyl){6-[1-methyl-2-(2-pyrrolidinylethyl)benzimidazol-6-yl]-2-morpholin-4-ylpyrimidin-4-yl}amine], the IC50 is below 500 nM.

`Clc1ccc(Nc2cc(-c3ccc4ncn(C5CCC5)c4c3)nc(N3CCOCC3)n2)cc1` [(4-chlorophenyl)[6-(1-cyclobutylbenzimidazol-6-yl)-2-morpholin-4-ylpyrimidin-4-yl]amine]: the IC50 lay in the range of 500 to 1000 nM.

Consider `Cc1nn(CCN2CCCC2)c2cc(-c3cc(Nc4ccc(Cl)cc4)nc(N4CCOCC4)n3)ccc12` [(4-chlorophenyl){6-[3-methyl-1-(2-pyrrolidinylethyl)(1H-indazol-6-yl)]-2-morpholin-4-ylpyrimidin-4-yl}amine], for which the IC50 lay in the range of 1000 to 5000 nM.

Turning to `Cc1ccc(Nc2cc(-c3ccc4c(cnn4C)c3)nc(N3CCOCC3)n2)cc1` [[6-(1-methyl(1H-indazol-5-yl))-2-morpholin-4-ylpyrimidin-4-yl](4-methylphenyl)amine], the IC50 was 1000 to 5000 nM.

On to `Clc1ccc(Nc2cc(-c3ccc4c(c3)ncn4C3CC3)nc(N3CCOCC3)n2)cc1` [(4-chlorophenyl)[6-(1-cyclopropylbenzimidazol-5-yl)-2-morpholin-4-ylpyrimidin-4-yl]amine], for which the IC50 lay in the range of 1000 to 5000 nM.

With `COc1cc(Nc2cc(-c3ccc4c(c3)ncn4C)nc(N3CCOCC3)n2)ccn1` [(2-methoxy(4-pyridyl))[6-(1-methylbenzimidazol-5-yl)-2-morpholin-4-ylpyrimidin-4-yl]amine], the 50% inhibitory concentration (IC50) lay within 1000 to 5000 nM.

As for `Cn1ncc2ccc(-c3cc(Nc4ccc(-c5cnn[nH]5)cc4)nc(N4CCOCC4)n3)cc21` [(4-(1H-1,2,3-triazol-5-yl)phenyl)[6-(1-methyl(1H-indazol-6-yl))-2-morpholin-4-ylpyrimidin-4-yl]amine], the 50% inhibitory concentration (IC50) is 1000 to 5000 nM.

Consider `Cn1cnc2cc(-c3cc(Nc4ccc(Cl)cc4)nc(N4CCOCC4)n3)ccc21` [(4-chlorophenyl)[6-(1-methylbenzimidazol-5-yl)-2-morpholin-4-ylpyrimidin-4-yl]amine], for which the IC50 lay in the range of 500 to 1000 nM.

As for `Cn1nc(CCN2CCOCC2)c2cc(F)c(-c3cc(Nc4ccc(Cl)cc4)nc(N4CCOCC4)n3)cc21` [(4-chlorophenyl){6-[5-fluoro-1-methyl-3-(2-morpholin-4-ylethyl)(1H-indazol-6-yl)]-2-morpholin-4-ylpyrimidin-4-yl}amine], the 50% inhibitory concentration (IC50) lay within 500 to 1000 nM.

In another test the test system is cultured primary human fibroblast from MPS patients.
Assay: not given
To be noted: 30-60 mM sodium chlorate; cited from earlier work.
For `[Na+].[O-][Cl+2]([O-])[O-]` [sodium chlorate], the “effect on synthesis of PAPs (sulfate donor)” value was “inhibits the synthesis of PAPs”.

Staying with this test, now noted: cells grown in the presence of sodium chlorate; cited from earlier work.
Consider `[Na+].[O-][Cl+2]([O-])[O-]` [sodium chlorate], for which the “sulfation of heparan sulfate produced by cells” value is recorded as “reduced sulfation”.

In general, IC50 refers to the midpoint of a concentration-inhibition curve.
